Read-outs that look alike come from different tables or passages of the source.
Key:
Experiment in all cases: Kinase profiling in a biochemical assay panel (mobility shift assays and ELISA), %-inhibition at 1 μM; selectivity entropy
[1] = biological target: panel of more than 300 wild-type and mutant kinases (313 kinase panel) (Homo sapiens, UniProt Q08345)
[2] = biological target: panel of more than 300 wild-type and mutant kinases (313 kinase panel) (Homo sapiens, UniProt P07949, G691S)
[3] = biological target: T1, panel of more than 300 wild-type and mutant kinases (313 kinase panel) (Homo sapiens, UniProt O14757)
T1 sequence (O14757 1-476): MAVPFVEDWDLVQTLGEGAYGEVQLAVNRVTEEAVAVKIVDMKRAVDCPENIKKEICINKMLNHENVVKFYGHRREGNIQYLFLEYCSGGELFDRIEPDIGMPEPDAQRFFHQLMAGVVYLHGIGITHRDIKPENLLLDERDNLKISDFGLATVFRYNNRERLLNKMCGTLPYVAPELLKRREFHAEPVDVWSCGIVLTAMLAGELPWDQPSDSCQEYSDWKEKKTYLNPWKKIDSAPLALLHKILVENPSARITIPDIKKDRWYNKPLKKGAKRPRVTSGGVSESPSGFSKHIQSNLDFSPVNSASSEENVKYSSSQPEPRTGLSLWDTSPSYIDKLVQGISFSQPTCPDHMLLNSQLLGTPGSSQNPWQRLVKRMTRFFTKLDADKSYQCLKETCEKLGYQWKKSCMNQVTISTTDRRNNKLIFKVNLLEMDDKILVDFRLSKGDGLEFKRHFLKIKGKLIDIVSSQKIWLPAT

[4] = biological target: panel of more than 300 wild-type and mutant kinases (313 kinase panel) (Homo sapiens, UniProt Q9Y463)
[5] = biological target: panel of more than 300 wild-type and mutant kinases (313 kinase panel) (Homo sapiens, UniProt P08069)
[6] = biological target: T2, panel of more than 300 wild-type and mutant kinases (313 kinase panel) (Homo sapiens, UniProt Q96BR1)
T2 sequence (Q96BR1 1-496): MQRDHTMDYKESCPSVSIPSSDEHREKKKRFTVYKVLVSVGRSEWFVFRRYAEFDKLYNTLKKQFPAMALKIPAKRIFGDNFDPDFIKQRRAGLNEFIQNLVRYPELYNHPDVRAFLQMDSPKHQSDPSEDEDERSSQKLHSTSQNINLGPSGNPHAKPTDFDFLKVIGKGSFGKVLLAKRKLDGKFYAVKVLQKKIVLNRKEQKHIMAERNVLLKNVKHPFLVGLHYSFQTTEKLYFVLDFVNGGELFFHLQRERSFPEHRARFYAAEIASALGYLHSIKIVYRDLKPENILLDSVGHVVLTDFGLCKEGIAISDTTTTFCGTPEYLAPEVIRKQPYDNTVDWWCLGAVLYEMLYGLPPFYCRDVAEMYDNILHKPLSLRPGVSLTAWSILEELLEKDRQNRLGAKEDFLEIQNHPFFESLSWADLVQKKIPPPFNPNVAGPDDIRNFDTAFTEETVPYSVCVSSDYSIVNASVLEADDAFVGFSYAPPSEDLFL

[7] = biological target: T3, panel of more than 300 wild-type and mutant kinases (313 kinase panel) (Homo sapiens, UniProt O60285)
T3 sequence (O60285 1-661): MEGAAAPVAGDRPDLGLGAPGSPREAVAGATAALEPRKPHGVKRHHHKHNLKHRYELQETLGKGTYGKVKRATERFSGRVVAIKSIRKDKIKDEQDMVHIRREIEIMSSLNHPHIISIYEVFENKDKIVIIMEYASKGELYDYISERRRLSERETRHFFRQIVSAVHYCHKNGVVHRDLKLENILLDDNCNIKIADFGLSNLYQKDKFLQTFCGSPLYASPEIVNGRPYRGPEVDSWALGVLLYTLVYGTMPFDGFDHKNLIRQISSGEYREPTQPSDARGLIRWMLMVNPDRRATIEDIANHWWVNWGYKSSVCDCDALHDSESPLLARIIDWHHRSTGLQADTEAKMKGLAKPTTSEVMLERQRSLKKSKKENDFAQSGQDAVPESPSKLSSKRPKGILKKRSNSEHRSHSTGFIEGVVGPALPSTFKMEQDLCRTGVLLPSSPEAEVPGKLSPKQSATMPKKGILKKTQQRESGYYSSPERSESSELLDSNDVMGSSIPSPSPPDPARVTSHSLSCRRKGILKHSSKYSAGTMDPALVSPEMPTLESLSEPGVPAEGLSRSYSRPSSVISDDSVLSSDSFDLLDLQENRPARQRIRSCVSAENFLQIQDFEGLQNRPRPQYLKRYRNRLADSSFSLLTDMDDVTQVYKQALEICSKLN

[8] = biological target: panel of more than 300 wild-type and mutant kinases (313 kinase panel) (Homo sapiens, UniProt Q13164)
[9] = biological target: panel of more than 300 wild-type and mutant kinases (313 kinase panel) (Homo sapiens, UniProt Q9P289)
[10] = kinase DYRK1B, compound at 1 μM

Compound | %-inhibition of DDR1 ([1]; kinase DDR1, compound at 1 μM) [%] | %-inhibition of RET(G691S) ([2]; kinase RET(G691S), 1 μM) [%] | %-inhibition, CHK1 ([3]; kinase CHK1, 1 μM compound) [%] | %-inhibition of DYRK1B [4, 10] [%] | %-inhibition of IGF1R ([5]; kinase IGF1R, compound at 1 μM) [%] | %-inhibition of SGK3 ([6]; kinase SGK3, 1 μM) [%] | %-inhibition of NuaK1 ([7]; kinase NuaK1, 1 μM) [%] | %-inhibition of Erk5 ([8]; kinase Erk5, compound at 1 μM) [%] | %-inhibition of MST4 ([9]; kinase MST4, 1 μM) [%] | %-inhibition of NuaK1 ([7]; 1 µM) [%] | %-inhibition of DDR1 ([1]; 1 µM) [%] | %-inhibition of RET(G691S) ([2]; 1 µM) [%] | %-inhibition, CHK1 ([3]; 1 µM) [%] | %-inhibition of MST4 ([9]; 1 µM) [%] | %-inhibition of DYRK1B [4] [%] | %-inhibition of IGF1R [5] [%] | %-inhibition of SGK3 ([6]; 1 µM) [%] | %-inhibition of Erk5 ([8]; 1 µM) [%]
COc1cc(Nc2c(C#N)cnc3cc(OCCCN4CCN(C)CC4)c(OC)cc23)c(Cl)cc1Cl [bosutinib] | 97 | 94 | 83 | -5 | 15 | -7 | 84 | 3.35 | – | – | – | – | – | – | – | – | – | –
COc1cc2nccc(Oc3ccc(NC(=O)C4(C(=O)Nc5ccc(F)cc5)CC4)cc3)c2cc1OC [cabozantinib] | 102 | – | 4.42 | -5 | 11 | -1.1 | 7 | -2 | -1.74 | – | – | – | – | – | – | – | – | –
C[C@@H](Oc1cc(-c2cnn(C3CCNCC3)c2)cnc1N)c1c(Cl)ccc(F)c1Cl [crizotinib] | 97 | – | 10 | -3 | – | -3 | – | 45 | 0.54 | 99 | – | – | – | – | – | – | – | –
CC(C)(C)c1nc(-c2cccc(NS(=O)(=O)c3c(F)cccc3F)c2F)c(-c2ccnc(N)n2)s1 [dabrafenib] | 96 | 53 | – | 29 | – | 0.0854 | 7 | 0.144 | -7 | – | – | – | – | – | – | – | – | –
Cc1nc(Nc2ncc(C(=O)Nc3c(C)cccc3Cl)s2)cc(N2CCN(CCO)CC2)n1 [dasatinib] | – | – | – | – | – | 1.18 | – | 5 | – | – | – | – | – | – | – | – | – | –
C#Cc1cccc(Nc2ncnc3cc(OCCOC)c(OCCOC)cc23)c1 [erlotinib] | – | – | – | – | – | – | – | – | – | 12 | 93 | 73 | 14 | 7 | -28 | 7 | 8 | 21
CO[C@H]1C[C@@H]2CC[C@@H](C)[C@@](O)(O2)C(=O)C(=O)N2CCCC[C@H]2C(=O)O[C@H]([C@H](C)C[C@@H]2CC[C@@H](OCCO)[C@H](OC)C2)CC(=O)[C@H](C)/C=C(\C)[C@@H](O)[C@@H](OC)C(=O)[C@H](C)C[C@H](C)/C=C/C=C/C=C/1C [everolimus] | -2.76 | -4.43 | 4 | -8 | -3.24 | -6.4 | 4.27 | -2.5 | -5.58 | – | – | – | – | – | – | – | – | –
CS(=O)(=O)CCNCc1ccc(-c2ccc3ncnc(Nc4ccc(OCc5cccc(F)c5)c(Cl)c4)c3c2)o1 [lapatinib] | 33 | – | 12 | 3 | 3.73 | – | 3 | – | – | – | – | -3 | – | – | – | – | 4.58 | -0.8
Cc1ccc(Nc2nccc(N(C)c3ccc4c(C)n(C)nc4c3)n2)cc1S(N)(=O)=O [pazopanib] | 97 | – | -7 | -3 | – | -3.17 | 73 | 16 | -3.23 | – | – | – | – | – | – | – | – | –
Cc1ccc(C(=O)Nc2ccc(CN3CCN(C)CC3)c(C(F)(F)F)c2)cc1C#Cc1cnc2cccnn12 [ponatinib] | – | 102 | 3.23 | 2 | 17 | -1.1 | 5 | 3.45 | – | – | – | – | – | – | – | – | – | –
N#CC[C@H](C1CCCC1)n1cc(-c2ncnc3[nH]ccc23)cn1 [ruxolitinib] | – | – | 4.66 | 8 | 1.31 | -5 | 55 | 6 | -3 | – | – | – | – | – | – | – | – | –
CCN(CC)CCNC(=O)c1c(C)[nH]c(/C=C2\C(=O)Nc3ccc(F)cc32)c1C [sunitinib] | – | – | – | – | – | – | – | 22 | 34 | – | – | – | – | – | – | – | – | –
COc1cc2c(Nc3ccc(Br)cc3F)ncnc2cc1OCC1CCN(C)CC1 [vandetanib] | 100 | – | 27 | -2.71 | -1.72 | -8 | 16 | 9 | -2.22 | – | – | – | – | – | – | – | – | –
